For this experiment, the target named is T1, human orexin type 2 receptor (hOX2R) (Homo sapiens, UniProt O43614).
T1 construct: expressed in transfected cells
T1 sequence (O43614 1-444): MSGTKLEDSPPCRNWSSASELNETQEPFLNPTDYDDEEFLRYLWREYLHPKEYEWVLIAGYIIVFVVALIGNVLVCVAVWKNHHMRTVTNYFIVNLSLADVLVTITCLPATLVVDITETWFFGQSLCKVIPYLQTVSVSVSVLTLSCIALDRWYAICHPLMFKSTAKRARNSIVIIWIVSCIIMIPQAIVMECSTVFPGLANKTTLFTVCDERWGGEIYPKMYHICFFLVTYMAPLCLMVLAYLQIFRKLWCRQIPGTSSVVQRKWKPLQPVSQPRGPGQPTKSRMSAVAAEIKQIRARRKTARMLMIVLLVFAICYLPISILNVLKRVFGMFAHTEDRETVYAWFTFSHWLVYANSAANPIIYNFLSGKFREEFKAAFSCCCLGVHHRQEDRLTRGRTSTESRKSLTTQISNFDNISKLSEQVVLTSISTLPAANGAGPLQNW
Put plainly: Measurement of orexin type 2 receptor agonist activity (FLIPR calcium fluorescence). The following applies: for EC50: read-out: hOx2 pEC50 (converted); for Emax: CHO, read-out: hOx2 Emax (%). Format: cell-based. The essentials:
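Agonism was read as fluorescence in cells stably expressing human OX2R. E. is the response at 10 μM relative to orexin A as full agonist (100%).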

Setting [1] is: CHO cells expressing hOX2R, FLIPR calcium fluorescence.

The source of these data is patent US12503475B2 (Centessa Pharmaceuticals (UK) Limited, priority 2020, dated 2025).

Usually Emax stands for the greatest response seen or fitted, relative to the assay's reference.

Like-named read-outs stand apart in the source and are kept apart here.

Consider `O=C(NCC(F)(F)F)N1CC2(CC2)[C@H](NS(=O)(=O)C(F)F)[C@@H]1Cc1cccc(-c2ccccc2)c1F` [Compound 200, (6S,7S)-7-((difluoromethyl)sulfonamido)-6-((2-fluoro-[1,1′-biphenyl]-3-yl)methyl)-N-(2,2,2-trifluoroethyl)-5-azaspiro[2.4]heptane-5-carboxamide], for which, under setting [1], the EC50 was 1 to 10 nM and the maximum response (Emax) lay within 90 to 100%.
With `O=C([C@H]1C[C@@H](F)C1)N1CC2(CC2)[C@H](NS(=O)(=O)C(F)F)[C@@H]1Cc1cccc(-c2ccccc2)c1F` [Compound 201, 1,1-difluoro-N-((6S,7S)-6-((2-fluoro-[1,1′-biphenyl]-3-yl)methyl)-5-((1s,3s)-3-fluorocyclobutane-1-carbonyl)-5-azaspiro[2.4]heptan-7-yl)methanesulfonamide], under setting [1], the EC50 was 1 to 10 nM and the Emax fell in the range of 90 to 100%.
On to `C[C@]1(C(=O)N2CC3(CC3)[C@H](NS(=O)(=O)CF)[C@@H]2Cc2cccc(-c3ccccc3)c2F)CCO1` [Compound 202, 1-fluoro-N-((6S,7S)-6-((2-fluoro-[1,1′-biphenyl]-3-yl)methyl)-5-((R)-2-methyloxetane-2-carbonyl)-5-azaspiro[2.4]heptan-7-yl)methanesulfonamide], for which, under setting [1], the EC50 was 1 to 10 nM and the Emax is 90 to 100%.
Turning to `C[C@@]1(C(=O)N2CC3(CC3)[C@H](NS(=O)(=O)CF)[C@@H]2Cc2cccc(-c3ccccc3)c2F)CCO1` [Compound 203, 1-fluoro-N-((6S,7S)-6-((2-fluoro-[1,1′-biphenyl]-3-yl)methyl)-5-((S)-2-methyloxetane-2-carbonyl)-5-azaspiro[2.4]heptan-7-yl)methanesulfonamide], under setting [1], the EC50 is 1 to 10 nM and the Emax was in the range of 90 to 100%.
With `O=C([C@H]1CCO1)N1CC2(CC2)[C@H](NS(=O)(=O)/C=C/F)[C@@H]1Cc1cccc(-c2ccccc2)c1F` [Compound 204, (E)-2-fluoro-N-((6S,7S)-6-((2-fluoro-[1,1′-biphenyl]-3-yl)methyl)-5-((R)-oxetane-2-carbonyl)-5-azaspiro[2.4]heptan-7-yl)ethene-1-sulfonamide], under setting [1], the EC50 was 10 to 100 nM and the Emax fell in the range of 90 to 100%.
For `C[C@H](F)CNC(=O)N1CC2(CC2)[C@H](NS(=O)(=O)CF)[C@@H]1Cc1cccc(-c2ccccc2)c1F` [Compound 205] the same measures were 1 to 10 nM and 90 to 100%.
As to `C[C@@H](F)CNC(=O)N1CC2(CC2)[C@H](NS(=O)(=O)CF)[C@@H]1Cc1cccc(-c2ccccc2)c1F` [Compound 206, (6S,7S)-6-((2-fluoro-[1,1′-biphenyl]-3-yl)methyl)-7-((fluoromethyl)sulfonamido)-N—((R)-2-fluoropropyl)-5-azaspiro[2.4]heptane-5-carboxamide], the maximal effect (Emax) was 90 to 100%. For the same compound, under setting [1], the EC50 was 1 to 10 nM.
As for `O=C(NCCF)N1CC2(CC2)[C@H](NS(=O)(=O)C(F)F)[C@@H]1Cc1cccc(-c2ccccc2)c1F` [Compound 207, (6S,7S)-7-((difluoromethyl)sulfonamido)-6-((2-fluoro-[1,1′-biphenyl]-3-yl)methyl)-N-(2-fluoroethyl)-5-azaspiro[2.4]heptane-5-carboxamide], under setting [1], the EC50 is 1 to 10 nM and the Emax was 90 to 100%.
`O=C(NCC(F)(F)F)N1CC2(CC2)[C@H](NS(=O)(=O)CF)[C@@H]1Cc1cc(F)cc(-c2ccccc2)c1F` [Compound 208, (6S,7S)-6-((2,5-difluoro-[1,1′-biphenyl]-3-yl)methyl)-7-((fluoromethyl)sulfonamido)-N-(2,2,2-trifluoroethyl)-5-azaspiro[2.4]heptane-5-carboxamide]: under setting [1], the EC50 was 0.0794 to 1 nM and the Emax lay in the range of 90 to 100%.
The matching figures for `C[C@@H](NC(=O)N1CC2(CC2)[C@H](NS(=O)(=O)CF)[C@@H]1Cc1cccc(-c2ccccc2)c1F)C(F)(F)F` [Compound 209, (6S,7S)-6-((2-fluoro-[1,1′-biphenyl]-3-yl)methyl)-7-((fluoromethyl)sulfonamido)-N-((R)-1,1,1-trifluoropropan-2-yl)-5-azaspiro[2.4]heptane-5-carboxamide]: 0.0794 to 1 nM and 90 to 100%.
For `CC(C)(O)C(=O)N1CC2(CC2)[C@H](NS(=O)(=O)CF)[C@@H]1Cc1cc(F)cc(-c2cccc(F)c2)c1F` [Compound 210, 1-fluoro-N-((6S,7S)-5-(2-hydroxy-2-methylpropanoyl)-6-((2,3′,5-trifluoro-[1,1′-biphenyl]-3-yl)methyl)-5-azaspiro[2.4]heptan-7-yl)methanesulfonamide] the same measures were 10 to 100 nM and 90 to 100%.
For `O=C(NCC(F)(F)F)N1CC2(CC2)[C@H](NS(=O)(=O)CF)[C@@H]1Cc1cccc(-c2ccccc2)c1F` [Compound 211, (6S,7S)-6-((2-fluoro-[1,1′-biphenyl]-3-yl)methyl)-7-((fluoromethyl)sulfonamido)-N-(2,2,2-trifluoroethyl)-5-azaspiro[2.4]heptane-5-carboxamide] the same measures were 1 to 10 nM and 90 to 100%.
Take `C[C@H](CF)NC(=O)N1CC2(CC2)[C@H](NS(=O)(=O)C(F)F)[C@@H]1Cc1cccc(-c2ccccc2)c1F` [Compound 212, (6S,7S)-7-((difluoromethyl)sulfonamido)-6-((2-fluoro-[1,1′-biphenyl]-3-yl)methyl)-N-((R)-I-fluoropropan-2-yl)-5-azaspiro[2.4]heptane-5-carboxamide]: under setting [1], the EC50 was 1 to 10 nM and the maximal response (Emax) lay in the range of 90 to 100%.
The matching figures for `O=C([C@H]1CCO1)N1CC2(CC2)[C@H](NS(=O)(=O)C(F)F)[C@@H]1Cc1cccc(-c2cccc(F)c2)c1` [Compound 213, 1,1-difluoro-N-((6S,7S)-6-((3′-fluoro-[1,1′-biphenyl]-3-yl)methyl)-5-((R)-oxetane-2-carbonyl)-5-azaspiro[2.4]heptan-7-yl)methanesulfonamide]: 1 to 10 nM and 90 to 100%.
As to `O=C([C@H]1CCO1)N1CC2(CC2)[C@H](NS(=O)(=O)C(F)F)[C@@H]1Cc1cccc(-c2cc(F)cc(F)c2)c1` [Compound 214, N-((6S,7S)-6-((3′,5′-difluoro-[1,1′-biphenyl]-3-yl)methyl)-5-((R)-oxetane-2-carbonyl)-5-azaspiro[2.4]heptan-7-yl)-1,1-difluoromethanesulfonamide], under setting [1], the EC50 is 1 to 10 nM and the Emax was 90 to 100%.
The matching figures for `COC1(CNC(=O)N2CC3(CC3)[C@H](NS(=O)(=O)C(F)F)[C@@H]2Cc2cccc(-c3ccccc3)c2F)CC1` [Compound 215, (6S,7S)-7-((difluoromethyl)sulfonamido)-6-((2-fluoro-[1,1′-biphenyl]-3-yl)methyl)-N-((1-methoxycyclopropyl)methyl)-5-azaspiro[2.4]heptane-5-carboxamide]: 0.0794 to 1 nM and 90 to 100%.
For `O=C([C@H]1CCO1)N1CC2(CC2)[C@H](NS(=O)(=O)CF)[C@@H]1Cc1cc(F)cc(-c2cccc(F)c2F)c1F` [Compound 217, 1-fluoro-N-((6S,7S)-5-((R)-oxetane-2-carbonyl)-6-((2,2′,3′,5-tetrafluoro-[1,1′-biphenyl]-3-yl)methyl)-5-azaspiro[2.4]heptan-7-yl)methanesulfonamide] the same measures were 1 to 10 nM and 90 to 100%.
For `O=C([C@H]1CCO1)N1CC2(CC2)[C@H](NS(=O)(=O)CF)[C@@H]1Cc1cc(F)cc(-c2cc(F)ccc2F)c1F` [Compound 218, 1-fluoro-N-((6S,7S)-5-((R)-oxetane-2-carbonyl)-6-((2,2′,5,5′-tetrafluoro-[1,1′-biphenyl]-3-yl)methyl)-5-azaspiro[2.4]heptan-7-yl)methanesulfonamide] the same measures were 1 to 10 nM and 90 to 100%.
For the compound `C[C@@H](NC(=O)N1CC2(CC2)[C@H](NS(=O)(=O)CF)[C@@H]1Cc1cccc(-c2ccccc2)c1F)C(F)F` [Compound 219, (6S,7S)-N-((R)-1,1-difluoropropan-2-yl)-6-((2-fluoro-[1,1′-biphenyl]-3-yl)methyl)-7-((fluoromethyl)sulfonamido)-5-azaspiro[2.4]heptane-5-carboxamide], under setting [1], the EC50 was 1 to 10 nM and the maximal response (Emax) fell in the range of 90 to 100%.
Take `O=C([C@H]1CCO1)N1CC2(CC2)[C@H](NS(=O)(=O)C(F)F)[C@@H]1Cc1cc(F)cc(-c2cc(F)cc(F)c2)c1F` [Compound 220, 1,1-difluoro-N-((6S,7S)-5-((R)-oxetane-2-carbonyl)-6-((2,3′,5,5′-tetrafluoro-[1,1′-biphenyl]-3-yl)methyl)-5-azaspiro[2.4]heptan-7-yl)methanesulfonamide]: under setting [1], the EC50 is 1 to 10 nM and the maximum response (Emax) fell in the range of 90 to 100%.
Consider `O=C([C@H](O)CF)N1CC2(CC2)[C@H](NS(=O)(=O)C(F)F)[C@@H]1Cc1cc(F)cc(-c2cc(F)cc(F)c2)c1F` [Compound 221, 1,1-difluoro-N-((6S,7S)-5-((S)-3-fluoro-2-hydroxypropanoyl)-6-((2,3′,5,5′-tetrafluoro-[1,1′-biphenyl]-3-yl)methyl)-5-azaspiro[2.4]heptan-7-yl)methanesulfonamide], for which the Emax was in the range of 90 to 100%. Also, under setting [1], the EC50 was 1 to 10 nM.
